Results taken from patent publication US20090221559A1 (priority 2005, published 2009).
Read-outs that look alike come from different tables or passages of the source.

Tests used:
[1] = target: T1, HCV NS5B polymerase (His-tagged, C-terminal 21 amino acid deleted NS5B, HC-J4) (Hepatitis C virus genotype 1b, UniProt O92972); assay: NS5b polymerase assay (biochemical RdRp assay, 3H-GTP incorporation, SPA beads); design: species or system HCV genotype 1b
T1 construct: The cDNA encoding NS5B amino acid 1-570 (HC-J4, genotype 1b); His tag (His6, from pET-21b) (C); made in house; host or cells: E. coli BL21 (DE3)
T1 sequence (O92972 2417-3000, looked up, stated change not applied): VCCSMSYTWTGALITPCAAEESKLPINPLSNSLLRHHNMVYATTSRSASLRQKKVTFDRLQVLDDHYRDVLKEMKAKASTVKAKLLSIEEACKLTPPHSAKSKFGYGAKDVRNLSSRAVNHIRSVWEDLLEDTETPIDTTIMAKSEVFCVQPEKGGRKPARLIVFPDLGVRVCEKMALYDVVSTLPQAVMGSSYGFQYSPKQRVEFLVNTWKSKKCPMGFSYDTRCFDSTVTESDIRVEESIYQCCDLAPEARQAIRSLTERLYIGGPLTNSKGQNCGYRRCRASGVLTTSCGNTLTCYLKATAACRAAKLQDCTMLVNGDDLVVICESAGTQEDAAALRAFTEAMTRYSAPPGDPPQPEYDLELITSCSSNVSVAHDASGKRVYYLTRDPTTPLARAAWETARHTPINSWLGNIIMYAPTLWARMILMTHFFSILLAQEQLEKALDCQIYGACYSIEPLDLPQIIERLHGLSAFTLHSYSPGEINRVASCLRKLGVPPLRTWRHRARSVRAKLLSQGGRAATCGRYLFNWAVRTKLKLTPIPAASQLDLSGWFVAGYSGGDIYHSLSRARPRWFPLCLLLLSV
Method: (§1) The compounds of formula (I) were tested for anti-HCV activity in an assay determining their activity against NS5b polymerase and in an HCV replicon assay
The cDNA encoding NS5B amino acid 1-570 (HC-J4, genotype 1b, pCV-J4L6S, genebank accession number AF054247) was subcloned into the Nhe I and Xho I restriction sites of pET-21b. Expression of the subsequent His-tagged C-terminal 21 amino acid deleted NS5B was performed as follows:
Following transformation in BL21 (DE3) competent cells, bacterial cells were grown in 22 liter LB/Amp media until to reach OD600=0.4-0.6. Protein expression was induced by addition of IPTG 0.4 mM, supplemented with 10 μM MgCl2, and incubated for 14-16 hrs at 20° C. Cells were harvested, resuspended in lysis buffer (20 mM Tris-HCl pH=7.5, 0.3 M NaCl, 10% glycerol, 0.1% NP40, 4 mM MgCl2, 14 mM beta-mercaptoethanol, with tablet of EDTA-free protease cocktail inhibitors) and lysed by sonification. The cell lysate was cleared by high-speed centrifugation (20K×g for 30 min), captured on Ni-NTA beads for 70 min at 4° C., and eluted with 25 mM Hepes pH 7.5, 0.5 M NaCl, 10% glycerol, 14 mM BME, 500 mM imidazole. The eluent was dialysed against 25 mM Hepes pH 7.5, 10% glycerol, 50 mM NaCl, 14 mM BME, after which the protein was further purified by heparin chromatography using the same buffer with 1 M NaCl for elution. Fractions containing pure protein were collected, dialyzed against storage buffer 25 mM Hepes pH=7.5, 300 mM NaCl, 10% glycerol, 14 mM BME), and flash-freezed in liquid nitrogen.
Measurement of HCV NS5B polymerization activity was performed by evaluating the amount of radiolabeled GTP incorporated by the enzyme in a newly synthesized RNA using heteropolymeric RNA template/primer. The highthroughput RdRp assay was carried out in 384-well plates using 200 nM enzyme, 0.1 μCi of ^3H GTP, 5 mM MgCl2, 600 nM GTP, 30 nM PolyC, 300 nM 5′-biotinylated oligo(rG13)/poly(rC) in 20 mM Tris pH 7.5, 21 mM KCl, 2.5 mM DTT, 16.7 mM NaCl and 0.17 mM EDTA. Test compounds were dissolved in dimethylsulfoxide. The test compounds were added to the preformed polymerase-template complex, and incubated at room temperature (RT) for 15 min before the addition of NTPs. The 30-μl reaction was terminated after 2 h at 25° C. upon addition of 30-μl PVT-SPA beads (Amersham Biosciences RPNQ0009, 5 mg/ml in 0.5 M EDTA).

[2] = system: HCV replicon RNA replication in Huh-7 luc/neo (Huh-Luc) cells; assay: HCV replicon assay (stable replicon cell reporter assay, luciferase read-out); format: cell-based, HCV type 1b
Method: as §1
The compounds of the present invention were examined for activity in the inhibition of HCV RNA replication in a cellular assay. […] The cellular assay was based on a bicistronic expression construct, as described by Lohmann et al. (1999) Science vol. 285 pp. 110-113 with modifications described by Krieger et al. (2001) Journal of Virology 75: 4614-4624, in a multi-target screening strategy. In essence, the method was as follows.
The assay utilized the stably transfected cell line Huh-7 luc/neo (hereafter referred to as Huh-Luc). This cell line harbored an RNA encoding a bicistronic expression construct comprising the wild type NS3-NS5B regions of HCV type 1b translated from an Internal Ribosome Entry Site (IRES) from encephalomyocarditis virus (EMCV), preceded by a reporter portion (FfL-luciferase), and a selectable marker portion (neo^R, neomycine phosphotransferase). The construct was bordered by 5′ and 3′ NTRs (non-translated regions) from HCV type 1b. Continued culture of the replicon cells in the presence of G418 (neo^R) was dependent on the replication of the HCV RNA. The stably transfected replicon cells that expressed HCV RNA, which replicated autonomously and to high levels, encoding inter alia luciferase, were used for screening the antiviral compounds.
The replicon cells were plated in 384 well plates in the presence of the test and control compounds which were added in various concentrations. Following an incubation of three days, HCV replication was measured by assaying luciferase activity (using standard luciferase assay substrates and reagents and a Perkin Elmer ViewLux™ ultraHTS microplate imager). […] The inhibitory activity of the compound on luciferase activity was monitored on the Huh-Luc cells, enabling a dose-response curve for each test compound.

[3] = 200 nM enzyme, 3H-GTP incorporation, 2 h at 25° C., read-out: NS5B Polymerase Assay IC50
[4] = Huh-Luc cells, three days incubation, luciferase activity, read-out: Replicon Assay EC50
[5] = NS5B Polymerase Assay IC50, 200 nM enzyme, 3H-GTP incorporation, 2 h at 25° C.
[6] = NS5B Polymerase Assay IC50 (μM)

Row | Molecule | IC50 [1, 3] [µM] | EC50 [2, 4] [µM] | also measured
1 | 3-(2-benzyloxyphenyl)-11-[3-(4-chlorobenzoyloxy)phenyl]-2,3,4,5,10,11-hexahydro-dibenzo[b,e][1,4]diazepin-1-one [compound 513] | – | – | IC50 ([1]; read-out: NS5B Polymerase Assay IC50): 70.1 µM; EC50 ([2]; Huh-Luc cells, incubation of three days, luciferase activity, read-out: Replicon Assay EC50): 3.67 µM
2 | COc1ccc(C2C3=C(CC(c4cccc([N+](=O)[O-])c4)CC3=O)Nc3ccccc3N2C(C)=O)cc1OC (mixture of isomers) [compound 180] | > 42.7 | 11.8 | –
3 | CCCCCC(=O)N1c2ccccc2NC2=C(C(=O)CC(c3ccc(OC)c(OC)c3)C2)C1c1cccc([N+](=O)[O-])c1 (mixture of isomers) [compound 181] | > 33.3 | 2.41 | –
4 | CCCCCC(=O)N1c2ccccc2NC2=C(C(=O)CC(c3ccc(C)cc3)C2)C1c1ccccc1Cl (mixture of isomers) [compound 182] | > 42.7 | 1.82 | –
5 | CCCCCC(=O)N1c2ccccc2NC2=C(C(=O)CC(c3ccc(OC)c(OC)c3)C2)C1c1ccc(Cl)cc1 (mixture of isomers) [compound 185] | > 33.3 | 4.79 | –
6 | COc1ccc(C2C3=C(CC(c4ccc(C)cc4)CC3=O)Nc3ccccc3N2C(=O)c2ccccc2)cc1 (mixture of isomers) [compound 188] | > 33.3 | 5.16 | –
7 | CCC(=O)N1c2ccccc2NC2=C(C(=O)CC(c3ccc(OC)c(OC)c3)C2)C1c1cccc(Cl)c1 (mixture of isomers) [compound 193] | > 33.3 | 5.92 | –
8 | COc1ccc(C2C3=C(CC(c4ccc(C)cc4)CC3=O)Nc3ccccc3N2C(=O)C(F)(F)F)cc1 (mixture of isomers) [compound 194] | > 33.3 | 5.22 | –
9 | CCC(=O)N1c2ccccc2NC2=C(C(=O)CC(c3ccc(C)cc3)C2)C1c1cccc(Cl)c1 (mixture of isomers) [compound 195] | > 33.3 | 6.9 | –
10 | COc1ccc(C2CC(=O)C3=C(C2)Nc2ccccc2N(C(=O)C(F)(F)F)C3c2ccc(C)cc2)cc1 (mixture of isomers) [compound 196] | > 33.3 | 7.32 | –
11 | COc1ccc(C2C3=C(CC(c4ccc(C)cc4)CC3=O)Nc3ccccc3N2C(=O)c2ccccc2)cc1OC (mixture of isomers) [compound 197] | > 33.3 | 8.97 | –
12 | COc1ccc(C2CC(=O)C3=C(C2)Nc2ccccc2N(C(C)=O)C3c2cccc(Cl)c2)cc1OC (mixture of isomers) [compound 198] | > 33.3 | 9.22 | –
13 | CC(=O)N1c2ccccc2NC2=C(C(=O)CC(c3ccccc3)C2)C1c1ccc(C)cc1 (mixture of isomers) [compound 199] | > 42.7 | 11.5 | –
14 | COc1ccc(C2C3=C(CC(c4ccc(Cl)cc4)CC3=O)Nc3ccccc3N2C(=O)C(F)(F)F)cc1 (mixture of isomers) [compound 200] | > 33.3 | 9.57 | –
15 | O=C1CC(c2ccc(Cl)cc2)CC2=C1C(c1cccc([N+](=O)[O-])c1)N(C(=O)C(F)(F)F)c1ccccc1N2 (mixture of isomers) [compound 202] | > 33.3 | 9.68 | –
16 | O=C1CC(c2ccc(Cl)cc2)CC2=C1C(c1cccc(Cl)c1)N(C(=O)c1ccccc1)c1ccccc1N2 (mixture of isomers) [compound 203] | > 33.3 | 9.94 | –
17 | Cc1ccc(C2CC(=O)C3=C(C2)Nc2ccccc2N(C(=O)c2ccccc2)C3c2cccc(Cl)c2)cc1 (mixture of isomers) [compound 204] | > 33.3 | 9.96 | –
18 | CCC(=O)N1c2ccccc2NC2=C(C(=O)CC(c3cccc([N+](=O)[O-])c3)C2)C1c1ccc(Cl)cc1 (mixture of isomers) [compound 211] | > 42.7 | – | –

Row | Molecule | IC50 [1, 3] [µM] | EC50 [2, 4] [µM] | also measured
19 | O=C1CC(c2cccc([N+](=O)[O-])c2)CC2=C1C(c1ccc(Cl)cc1)N(C(=O)C(F)(F)F)c1ccccc1N2 (mixture of isomers) [compound 214] | > 42.7 | – | –
20 | CC(=O)N1c2ccccc2NC2=C(C(=O)CC(C)(C)C2)C1c1ccc(OCc2ccccc2)c(Cl)c1 (single isomer, unassigned) [compound 303, 10-acetyl-11-[4-benzyloxy-3-chlorophenyl]-3,3-dimethyl-2,3,4,5,10,11-hexahydro-1H-dibenzo[b,e][1,4]diazepin-1-one] | – | – | IC50 [1, 5]: 31.5 µM
21 | COc1ccc(C2C3=C(CC(C)(C)CC3=O)Nc3ccccc3N2C(=O)c2ccccc2)cc1OCc1ccccc1 (stereo not shown) [compound 51] | – | 7.66 | –
22 | CC1(C)CC(=O)C2=C(C1)Nc1ccccc1N(C(=O)Cc1ccccc1)C2c1ccc(Br)cc1 (stereo not shown) [compound 95] | – | – | IC50 [1, 5]: > 33.3 µM
23 | CC1(C)CC(=O)C2=C(C1)Nc1ccccc1N(C(=O)NCc1ccoc1)C2c1ccc(Cl)cc1Cl (stereo not shown) [compound 158] | – | 31.1 | –
24 | CC1(C)CC(=O)C2=C(C1)Nc1ccccc1N(C(=O)NCc1ccccc1)C2c1ccc(Cl)cc1Cl (stereo not shown) [compound 159] | – | 9.59 | –
25 | Cc1ccc(C2C3=C(CC(c4cccc(Cl)c4)CC3=O)Nc3ccccc3N2C(=O)C(F)(F)F)cc1 (stereo not shown) [compound 225] | > 42.7 | – | –
26 | CC1(C)CC(=O)C2=C(C1)Nc1ccccc1N(C(=O)Cc1ccccc1)C2c1ccc(-c2ccc([N+](=O)[O-])cc2)o1 (stereo not shown) [compound 238] | – | – | IC50 [1, 5]: > 42.7 µM
27 | CC(C)C(=O)N1c2ccccc2NC2=C(C(=O)CC(C)(C)C2)C1c1ccc([N+](=O)[O-])s1 (stereo not shown) [compound 239] | – | – | IC50 [1, 5]: > 42.7 µM
28 | CC1(C)CC(=O)C2=C(C1)Nc1ccccc1N(C(=O)C(F)(F)F)C2/C(Br)=C/c1ccccc1 (stereo not shown) [compound 256] | – | – | EC50 ([2]; Hepatitis C virus, Huh-7, 72 h, read-out: Replicon Assay EC50, Huh-Luc cells, three days incubation, luciferase activity): 3.98 µM
29 | CC1(C)CC(=O)C2=C(C1)Nc1ccccc1N(C(=O)c1ccccc1)C2c1ccc(-c2cccc([N+](=O)[O-])c2)o1 (stereo not shown) [compound 272] | – | – | IC50 [1, 5]: > 42.7 µM
30 | CCCCCC(=O)N1c2ccccc2NC2=C(C(=O)CC(c3ccco3)C2)C1c1cccc([N+](=O)[O-])c1 (stereo not shown) [compound 290] | – | – | IC50 [1, 5]: > 42.7 µM
31 | COc1ccc(C2CC(=O)C3=C(C2)Nc2ccccc2NC3c2ccccc2OC(C)C)cc1 (stereo not shown) [compound 333] | – | – | IC50 [1, 6]: > 42.7 µM
32 | COc1ccc(C2CC(=O)C3=C(C2)Nc2ccccc2NC3c2c(F)cccc2Cl)cc1 (stereo not shown) [compound 334] | – | – | IC50 [1, 6]: > 42.7 µM
33 | COc1ccc(OC)c(C2Nc3ccccc3NC3=C2C(=O)CC(c2ccccc2)C3)c1 (stereo not shown) [compound 351] | – | – | IC50 [1, 6]: > 42.7 µM
34 | O=C1C[C@@H](c2ccc(Cl)cc2)CC2=C1[C@H](c1cc3c(cc1[N+](=O)[O-])OCO3)Nc1ccccc1N2 [compound 475] | – | – | IC50 [1, 6]: > 42.7 µM
35 | O=C1C[C@@H](c2ccc(Cl)cc2)CC2=C1[C@H](c1cc3c(cc1Br)OCO3)Nc1ccccc1N2 [compound 479] | – | – | IC50 [1, 6]: > 42.7 µM
